Laboratory results: patent US9175282B2, “Cellobiose 2-epimerase, its preparation and uses” (HAYASHIBARA CO., LTD., priority 2009, dated 2015)
Entries after “also recorded” stand apart in the source; their conditions may differ. Where two headings read alike, the source gives them in different places.

Legend:
cellobiose 2-epimerase = assay: Effect of metal ions on the epimerase activity; type: biochemical, Caldicellusiruptor saccharolyticus ATCC43494; settings: for Inhibition of the epimerase activity by metal ion: 1 mM
[1] = ingested in rat; cited from earlier work
[2] = tested on: recombinant cellobiose 2-epimerase; assay: Formation of isomerized saccharides from various saccharides, effect of the amount of enzyme; type: biochemical, Caldicellulosiruptor saccharolyticus ATCC43494; settings: 10% (w/v) substrate, pH 6.0, 60° C., 72 hours
Description: (§1) Each of them was dissolved into 20 mM acetate buffer (pH 6.0), admixed with the purified preparation of the recombinant cellobiose 2-epimerase, obtained by the method in Experiment 4-4, and followed the enzyme reaction under the conditions of 10% (w/v) substrate concentration, 60° C. for 72 hours. The amount of enzyme was set to 130 or 500 units/g-substrate when monosaccharide was used as the substrate, and to 1 or 130 units/g-substrate when disaccharide or trisaccharide was used as the substrate. Each reaction mixture was heated at 100° C. for 10 minutes to stop the reaction and subjected to HPLC analysis to determine the contents of isomerized saccharide, on a dry solid basis. The contents of epilactose and lactulose in the reaction mixture obtained using lactose as substrate were determined by GC analysis described in Experiment 1-2.

[3] = tested on: recombinant cellobiose 2-epimerase; assay: Isomerized saccharides formed from monosaccharides (HPLC); type: biochemical, Caldicellulosiruptor saccharolyticus ATCC43494
Description: (§2) Reaction products formed from D-glucose, D-galactose, and D-mannose by the action of the cellobiose 2-epimerase of the present invention were investigated. D-Glucose, D-galactose, or D-mannose was dissolved into 50 mM acetate buffer (pH 6.0) to give a final concentration of 20% (w/v) to make into a substrate solution. To 0.1 ml of the substrate solution, 130 units/g-solid substrate for D-glucose and D-mannose (0.1 ml as the enzyme solution), or 500 units/g-solid substrate for D-galactose (0.1 ml as the enzyme solution), of the purified preparation of the recombinant cellobiose 2-epimerase, obtained by the method in Experiment 4-4, was admixed; and followed the enzyme reaction at 60° C. for 48 hours.
After the completion of the reaction, reaction mixture was heated at 100° C. for 10 minutes to stop the reaction. Each reaction mixture was subjected to HPLC analysis for determining the product. HPLC analysis of the products in the reaction mixture was carried out under the following conditions for separating monosaccharides.

[4] = tested on: recombinant cellobiose 2-epimerase; assay: Substrate specificity of cellobiose 2-epimerase by TLC; type: biochemical, Caldicellulosiruptor saccharolyticus ATCC43494; design: key to Action: −: No product is detected; ±: Some products are slightly detected; +: Some products are detected; ++: Some products are clearly detected; settings: for Action: 2% (w/w) substrate, MOPS buffer pH 8.0, 500 units/g-substrate, 60° C., 24 hours, product spot on TLC; for Action of the enzyme on the saccharide: summary of Table 3
Description: Substrate specificity of the enzyme was investigated by allowing the purified preparation of the recombinant cellobiose 2-epimerase, obtained by the method of Experiment 4-4, to act on various saccharides. Substrate solutions were prepared by dissolving D-glucose, D-xylose, D-allose, D-ribose, D-galactose, D-fructose, D-mannose, D-psicose, D-tagatose, L-sorbose, L-rhamnose, L-ribose, trehalose, kojibiose, nigerose, isomaltose, neotrehalose, gentiobiose, lactose, sucrose, maltulose, palatinose, maltose, maltotriose, maltotetraose, maltopentaose, maltohexaose, maltoheptaose, cellobiose, cellotriose, cellotetraose, selaginose, isomaltosyl-glucoside, isomaltotriose, panose, isopanose, erlose, maltitol, maltotriitol, methyl-α-glucoside, methyl-β-glucoside, D-glucosamine, D-galactosamine, D-glucuronic acid, N-acetyl-glucosamine, or N-acetyl-galactosamine into MOPS buffer (pH 8.0) to give a final concentration of 2% (w/w) of saccharide and 40 mM buffer.
Then, each of the resulting substrate solutions was further admixed with 500 units/g-substrate, on a dry solid basis, of the purified preparation of recombinant cellobiose 2-epimerase, obtained by the method in Experiment 4-4, and followed by the enzyme reaction at 60° C. for 24 hours. After stopping the reaction by heating the reaction mixture at 100° C. for 10 minutes, each reaction mixture was subjected to TLC analysis under the conditions in Experiment 1-2 to examine the saccharides in each mixture before and after the reaction. The substrate specificity of the enzyme was judged by investigating whether the spot of the reaction product except for the substrate is detected in the TLC chromatogram or not, and the degree of the strength of the visualized spot.

[5] = Substrate specificities of the cellobiose 2-epimerase (summary Table 6); type: biochemical; settings: listed as Caldicellulosiruptor saccharolyticus ATCC43494
Description: as §2, §1
The physicochemical properties and substrate specificities of the cellobiose 2-epimerase from Caldicellulosiruptor saccharolyticus ATCC43494, obtained from above experiments, were shown in Table 6 together with those of conventional cellobiose 2-epimerases from Ruminococcus albus (excerpted from Non-Patent Document 3) and Eubacterium cellosolvens (excerpted from Non-Patent Document 4).

[6] = Optimum temperature and optimum pH of epimerase activity; type: biochemical; settings: for Optimum temperature: reacted at pH 6.0 for 20 minutes
Description: (§3) Through the specification of the present invention, the activity of the cellobiose 2-epimerase was determined as a lactose 2-epimerase activity, which catalyzes epimerization of lactose to form epilactose, using lactose as the substrate obtainable in highly purified form at low cost. The lactose 2-epimerase activity was measured as follows. To 1,000 μl of substrate solution, which contains lactose to give a final concentration of 35.1 mM and acetate buffer (pH 6.0) to give a final concentration of 20 mM of the reaction solution, 200 μl of a enzyme solution was added to give a 1,200 μl of the reaction solution, followed by reaction at 50° C. for 20 minutes. The reaction was stopped by heating for 10 minutes in a boiling water bath. Then reaction mixture was subjected to HPLC chromatography to determine the amount of epilactose produced by the reaction. The HPLC chromatography was conducted at the following conditions;
Using the purified cellobiose 2-epimerase preparation obtained by the method of Experiment 2, effects of temperature and pH on the epimerase activity were investigated according to the method of assaying the activity. The results were in FIG. 3 (optimum temperature) and FIG. 4 (optimum pH). The optimum temperature of the enzyme is 80° C. when reacted at pH 6.0 for 20 minutes. The optimum pH of the enzyme is 7.8 when reacted at 50° C. for 20 minutes.

[7] = Lactose 2-epimerase activity of enzyme preparations; type: biochemical; settings: purified enzyme
Description: as §3, with “conditions; […]” for “conditions;”
Then, each seed culture broth was inoculated into 10 L of the same medium eight each in eight 11-L pressure steel bottles and cultured. […] The epimerase activity of the crude enzyme was determined to be 0.009 Unit/ml.
The enzyme preparation purified by the above process contained 0.9 mg protein, and its activity yield was 3.4% from the crude enzyme. […] The amount of protein was measured by Lowry method using bovine serum albumin as standard.

[8] = 130 units/g-substrate, pH 6.0, 60° C., 48 hours
[9] = 500 units/g-substrate, pH 6.0, 60° C., 48 hours

For [Ba+2].[Cl-].[Cl-] [BaCl2], the “Relative activity (%)” value (cellobiose 2-epimerase; metal salt 1 mM, None = 100) was 108%.

In the case of [Cl-].[Cl-].[Co+2] [CoCl2], the “Relative activity (%)” value (cellobiose 2-epimerase) is reported as 101%.

In the case of [Ca+2].[Cl-].[Cl-] [CaCl2], the “Relative activity (%)” value (cellobiose 2-epimerase; metal salt 1 mM, None = 100) is reported as 107%.

With NC(CO)(CO)CO [Tris] the “Relative activity (%)” value (cellobiose 2-epimerase; metal salt 1 mM, None = 100) was 93%.

For [Cl][Ni][Cl] [NiCl2], the “Relative activity (%)” value (cellobiose 2-epimerase; metal salt 1 mM, None = 100) was 103%.

In the case of [Cl][Pb][Cl] [PbCl2], the “Inhibition of the epimerase activity by metal ion” value (cellobiose 2-epimerase) is reported as “inhibited” and the “Relative activity (%)” value (cellobiose 2-epimerase; metal salt 1 mM, None = 100) is reported as 36%.

For [Cl-].[Cl-].[Zn+2] [ZnCl2], the “Inhibition of the epimerase activity by metal ion” value (cellobiose 2-epimerase) was “almost completely inhibited” and the “Relative activity (%)” value (cellobiose 2-epimerase; metal salt 1 mM, None = 100) was 1%.

With O=C(O)CN(CCN(CC(=O)O)CC(=O)O)CC(=O)O [EDTA] the “Relative activity (%)” value (cellobiose 2-epimerase; metal salt 1 mM, None = 100) was 99%.

In the case of [Cl-].[Cl-].[Mg+2] [MgCl2], the “Relative activity (%)” value (cellobiose 2-epimerase; metal salt 1 mM, None = 100) is reported as 106%.

For [Cl][Al]([Cl])[Cl] [AlCl3], the “Inhibition of the epimerase activity by metal ion” value (cellobiose 2-epimerase) was “inhibited” and the “Relative activity (%)” value (cellobiose 2-epimerase; metal salt 1 mM, None = 100) was 45%.

In the case of [Cl][Fe]([Cl])[Cl] [FeCl3], the “Relative activity (%)” value (cellobiose 2-epimerase; metal salt 1 mM, None = 100) is reported as 33%.

With [Cl][Hg][Cl] [HgCl2] the “Inhibition of the epimerase activity by metal ion” value (cellobiose 2-epimerase) was “almost completely inhibited” and the “Relative activity (%)” value (cellobiose 2-epimerase; metal salt 1 mM, None = 100) was 1%.

In the case of [Cl-].[Cl-].[Sr+2] [SrCl2], the “Relative activity (%)” value (cellobiose 2-epimerase; metal salt 1 mM, None = 100) is reported as 104%.

In the case of OC[C@H]1O[C@@H](O[C@H]2[C@H](O)[C@H](O)C(O)O[C@@H]2CO)[C@H](O)[C@@H](O)[C@H]1O (stereo partly drawn) [epilactose], the “Amount of short-chain fatty acid in the intestine” value [1] is listed as “increasing the amount of short-chain fatty acid in the intestine”, the “Calcium absorption in the small intestine” value [1] is listed as “promoting calcium absorption in the small intestine” and the Plasma cholesterol level [1] is listed as “lowering the plasma cholesterol level”.

With O=C[C@H](O)[C@@H](O)[C@H](O)[C@H](O)CO [D-Glucose] the “Content of isomerized saccharide in the reaction mixture (%): D-Fructose” value (“Content … (%): D-Fructose” for short) ([2]; 130 units/g-substrate) was 5.0%, the “Content of isomerized saccharide in the reaction mixture (%): D-Mannose” value ([2]; 130 units/g-substrate) was 20.9% and the “Content … (%): D-Fructose” value ([2]; 500 units/g-substrate) was 9.2%. For the same molecule, the “Content of isomerized saccharide in the reaction mixture (%): D-Mannose” value ([2]; 500 units/g-substrate) was 23.3%, the “Content (%, w/w) of product D-Fructose” value [3, 8] was 3.8 %, w/w and the “Content (%, w/w) of product D-Mannose” value [3, 8] was 20.6 %, w/w. The Action [4] was “+” and the “Action of the enzyme on the saccharide” value [4] was “acted on”.

In the case of [Cl][Fe][Cl] [FeCl2], the “Relative activity (%)” value (cellobiose 2-epimerase; metal salt 1 mM, None = 100) is reported as 35%.

In the case of [Cl][Cu][Cl] [CuCl2], the “Inhibition of the epimerase activity by metal ion” value (cellobiose 2-epimerase) is reported as “almost completely inhibited” and the “Relative activity (%)” value (cellobiose 2-epimerase; metal salt 1 mM, None = 100) is reported as 1%.

With O=C[C@H](O)[C@@H](O)[C@@H](O)[C@H](O)CO [D-Galactose] the “Content of isomerized saccharide in the reaction mixture (%): D-Tagatose” value ([2]; 500 units/g-substrate) was 9.2%, the “Content of isomerized saccharide in the reaction mixture (%): D-Talose” value ([2]; 500 units/g-substrate) was 11.0% and the “Action of the enzyme compared with D-glucose and D-mannose” value [3] was “relatively weak”. For the same molecule, the “Content (%, w/w) of product D-Tagatose” value [3, 9] was 8.4 %, w/w, the “Content (%, w/w) of product D-Talose” value [3, 9] was 10.3 %, w/w and the Action [4] was “±”. The “Action of the enzyme on the saccharide” value [4] was “slightly acted on”.

For O=C[C@@H](O)[C@@H](O)[C@H](O)[C@H](O)CO [D-Mannose], the “Content … (%): D-Fructose” value ([2]; 130 units/g-substrate) was 6.6%, the “Content of isomerized saccharide in the reaction mixture (%): D-Glucose” value ([2]; 130 units/g-substrate) was 45.8% and the “Content (%, w/w) of product D-Fructose” value [3, 8] was 5.1 %, w/w. The “Content (%, w/w) of product D-Glucose” value [3, 8] was 41.8 %, w/w, the Action [4] was “+” and the “Action of the enzyme on the saccharide” value [4] was “acted on”.

For [Cl][Mn][Cl] [MnCl2], the “Relative activity (%)” value (cellobiose 2-epimerase; metal salt 1 mM, None = 100) was 104%.

B1: cellobiose 2-epimerase of the present invention: thermostable cellobiose 2-epimerase of Caldicellusiruptor saccharolyticus ATCC43494, amino acid sequence of SEQ ID NO:10 with 390 residues (protein, listed as Caldicellulosiruptor saccharolyticus)
chain: MDITRFKEDLKAHLEEKIIPFWQSLKDDEFGGYYGYMDFNLNIDRKAQKGCILNSRILWFFSACYNVLKSEKCKEMAFHAFEFLKNKFWDKEYEGLFWSVSHKGVPVDVTKHVYVQAFGIYGLSEYYEASGDEEALHMAKRLFEILETKCKRENGYTEQFERNWQEKENRFLSENGVIASKTMNTHLHVLESYTNLYRLLKLDDVYEALEWIVRLFVDKIYKKGTGHFKVFCDDNWNELIKAVSYGHDIEASWLLDQAAKYLKDEKLKEEVEKLALEVAQITLKEAFDGQSLINEMIEDRIDRSKIWWVEAETVVGFFNAYQKTKEEKYLDAAIKTWEFIKEHLVDRRKNSEWLWKVNEDLEAVNMPIVEQWKCPYHNGRMCLEIIKRVD
For B1, the “Substrate specificity: Cellobiose” value ([5]; substrate Cellobiose) was “epicellobiose”, the “Substrate specificity: D-Galactose” value ([5]; substrate D-Galactose) was “Forming D-talose” and the “Substrate specificity: D-Glucose” value ([5]; substrate D-Glucose) was “Forming D-mannose”. For the same molecule, the “Substrate specificity: D-Mannose” value ([5]; substrate D-Mannose) was “Forming D-glucose”, the “Substrate specificity: Lactose” value ([5]; substrate Lactose) was “Forming epilactose” and the “Substrate specificity: Maltose” value ([5]; substrate Maltose) was “Forming epimaltose”. For the same molecule, the “Optimum pH” value ([6]; reacted at 50° C. for 20 minutes) was 7.8, the Optimum temperature [6] was 80 °C and the Optimum temperature ([6]; listed as Caldicellulosiruptor saccharolyticus ATCC43494) was 80 °C. For the same molecule, the Optimum temperature ([6]; listed as purified cellobiose 2-epimerase preparation) was 80 °C, the Specific activity [7] was 26.9 unit/mg-protein and the “Inhibition by metal ions” value (cellobiose 2-epimerase; ions that inhibit the enzyme, listed as Caldicellulosiruptor saccharolyticus ATCC43494) was “Al^3+, Fe^2+, Fe^3+,; also recorded: Pb^2+, Cu^2+, Zn^2+,; also recorded: Hg^2+”.
